In ChEMBL document CHEMBL1201862, “PubChem BioAssay data set” (2004):
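Five concentrations, 48 hours, 96-well plates. GI50 is the concentration that inhibits growth by half.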 The source made the active and inactive calls. Cut-off read from the data, not from the text of the source: active = GI50 up to about 1.1 µM and inactive = higher.

Tests used:
Assay in all cases: growth of human tumour cells (NCI), 48 h
SK-MEL-2 = tested on: SK-MEL-2
HCC 2998 = tested on: HCC 2998
SW-620 = tested on: SW-620
COLO 205 = tested on: COLO 205
LOX IMVI = tested on: LOX IMVI
SNB-75 = tested on: SNB-75
SF-268 = tested on: SF-268
HCT-15 = tested on: HCT-15
KM12 = tested on: KM12
OVCAR-5 = tested on: OVCAR-5
RPMI-8226 = tested on: RPMI-8226
OVCAR-4 = tested on: OVCAR-4
RXF 393 = tested on: RXF 393
A549 = tested on: A549
SNB-19 = tested on: SNB-19
HOP-92 = tested on: HOP-92
SF-539 = tested on: SF-539
NCI-H23 = tested on: NCI-H23
MCF7 = tested on: MCF7

| SMILES | GI50 (SK-MEL-2) | GI50 (HCC 2998) | GI50 (SW-620) | GI50 (COLO 205) | GI50 (LOX IMVI) | GI50 (SNB-75) | GI50 (SF-268) | GI50 (HCT-15) | GI50 (KM12) | GI50 (OVCAR-5) | GI50 (RPMI-8226) | GI50 (OVCAR-4) | GI50 (RXF 393) | GI50 (A549) | GI50 (SNB-19) | GI50 (HOP-92) | GI50 (SF-539) | GI50 (NCI-H23) | GI50 (MCF7) |
| --- | --- | --- | --- | --- | --- | --- | --- | --- | --- | --- | --- | --- | --- | --- | --- | --- | --- | --- | --- |
| N#C/C(=C\c1ccc(O)c(O)c1)C(=O)NC1CCC(CC2CCC(NC(=O)/C(C#N)=C/c3ccc(O)c(O)c3)CC2)CC1 (stereo not drawn) | 2 µM (inactive) | 2.24 µM (inactive) | 0.465 µM (active) | 1.12 µM (inactive) | 0.356 µM (active) | 0.263 µM (active) | 1.93 µM (inactive) | 0.461 µM | 1.47 µM (inactive) | 2.08 µM (inactive) | 0.693 µM (active) | 3.32 µM (inactive) | 2.29 µM (inactive) | 0.466 µM (active) | 3.52 µM (inactive) | 1.55 µM (inactive) | 0.536 µM (active) | 1.3 µM (inactive) |  |
| NCCn1ccc(NC(c2ccccc2)(c2ccccc2)c2ccccc2)nc1=O | 18.7 µM (inactive) | 18 µM (inactive) | 19.1 µM (inactive) | 29.8 µM (inactive) | 16.4 µM (inactive) | 16.7 µM (inactive) | 16.3 µM (inactive) | > 100 µM | 21.7 µM (inactive) | > 100 µM (inactive) | 18.6 µM (inactive) | 36.3 µM (inactive) | 4.08 µM (inactive) | 25.2 µM (inactive) | > 10 µM (inactive) | 13.4 µM (inactive) | 17 µM (inactive) | > 10 µM (inactive) |  |
| CCCOP1(=O)C=C(O)C(Cl)=C(C)C1 (stereo not drawn) | 40.6 µM (inactive) | > 100 µM (inactive) | > 100 µM (inactive) | > 100 µM (inactive) | > 100 µM (inactive) | > 100 µM (inactive) | > 100 µM (inactive) | > 100 µM | 41.2 µM (inactive) |  |  | > 100 µM (inactive) | > 100 µM (inactive) | > 100 µM (inactive) | > 100 µM (inactive) | > 100 µM (inactive) | > 100 µM (inactive) | > 100 µM (inactive) |  |
| C=CC(=O)C#CC#CC/C=C\CCCCCCC | > 20.6 µM (inactive) | > 20.6 µM (inactive) | > 20.6 µM (inactive) | > 20.6 µM (inactive) | 7.76 µM (inactive) | > 20.6 µM (inactive) | > 20.6 µM (inactive) | > 20.6 µM | > 20.6 µM (inactive) | > 20.6 µM (inactive) | 5.6 µM (inactive) | > 20.6 µM (inactive) | > 11.3 µM (inactive) | > 20.6 µM (inactive) | > 15.5 µM (inactive) | > 11.3 µM (inactive) | > 20.6 µM (inactive) | > 20.6 µM (inactive) | > 20.6 µM (inactive) |
| C/C(=N\O)c1ccc2cc(Br)c3ccccc3c2c1 | 15.8 µM (inactive) | 14.6 µM (inactive) | 23.1 µM (inactive) |  | 15.6 µM (inactive) | 28.1 µM (inactive) | 26.2 µM (inactive) | 16 µM | 15.6 µM (inactive) | 11.5 µM (inactive) | 17 µM (inactive) | 61.5 µM (inactive) | 14.8 µM (inactive) | 37 µM (inactive) | 33.4 µM (inactive) | 21 µM (inactive) |  | 20 µM (inactive) | 17.2 µM (inactive) |
| COc1ccc(/C=N/NC(=O)CSc2nc(-c3ccccc3)c(-c3ccccc3)[nH]2)cc1OC | 20.7 µM (inactive) |  | 29.9 µM (inactive) | 21.2 µM (inactive) | 20.5 µM (inactive) | 29.9 µM (inactive) | 50 µM (inactive) | 26.9 µM | 17.2 µM (inactive) | 22 µM (inactive) | 20.3 µM (inactive) | 31.3 µM (inactive) | 20.1 µM (inactive) | 45.9 µM (inactive) | 34.5 µM (inactive) | 42.1 µM (inactive) | 22.4 µM (inactive) | 30.3 µM (inactive) |  |
| O=C1CCC(=O)C(C(=O)CCC(=O)Nc2cccc(Cl)c2)C1 (stereo not drawn) |  | > 100 µM (inactive) | > 100 µM (inactive) | > 100 µM (inactive) | > 100 µM (inactive) | > 100 µM (inactive) |  | > 100 µM | > 100 µM (inactive) | > 100 µM (inactive) | > 100 µM (inactive) |  | > 100 µM (inactive) | > 100 µM (inactive) | > 100 µM (inactive) | > 100 µM (inactive) | > 100 µM (inactive) | > 100 µM (inactive) |  |
| O=C(Nc1ccc2[nH]c(C(=O)N3CC(CCl)c4ccc([N+](=O)[O-])cc43)cc2c1)c1cc2ccccc2o1 (stereo not drawn) | > 1100 µM (inactive) | > 1100 µM (inactive) | > 1100 µM (inactive) | > 1100 µM (inactive) | > 1100 µM (inactive) |  | > 1100 µM (inactive) | > 1100 µM | > 1100 µM (inactive) | 893 µM (inactive) | > 1100 µM (inactive) | > 1100 µM (inactive) | > 1100 µM (inactive) | 556 µM (inactive) | > 1100 µM (inactive) | > 1100 µM (inactive) | > 1100 µM (inactive) | > 1100 µM (inactive) | > 1100 µM (inactive) |
| Cc1c(/C=N/N=C/c2[nH]c(C(=O)OC(C)(C)C)c(C)c2C)[nH]c(C(=O)OC(C)(C)C)c1C | > 100 µM (inactive) | > 100 µM (inactive) | > 100 µM (inactive) | > 100 µM (inactive) | 61 µM (inactive) | 33 µM (inactive) | > 100 µM (inactive) | > 100 µM | > 100 µM (inactive) | > 100 µM (inactive) | 90.6 µM (inactive) | > 100 µM (inactive) | > 100 µM (inactive) | > 100 µM (inactive) | > 100 µM (inactive) | 67.8 µM (inactive) | > 100 µM (inactive) | > 100 µM (inactive) |  |
| O=C(OCc1ccccc1)N1N=NC2C3CC(OCc4ccccc4)(OCc4ccccc4)C(O3)C21 (stereo not drawn) | 16.3 µM (inactive) | 27 µM (inactive) | 20.6 µM (inactive) | 23.1 µM (inactive) | 15.1 µM (inactive) | 24.3 µM (inactive) | 22.4 µM (inactive) | 34 µM | 36.3 µM (inactive) | 26 µM (inactive) | 7.24 µM (inactive) | 22.2 µM (inactive) | 9.64 µM (inactive) | 17.3 µM (inactive) |  | 12.6 µM (inactive) | 32.7 µM (inactive) | 12.8 µM (inactive) |  |
| CN1CCN(C2=C(Cl)C3(OCCS3)C(F)(F)C2(F)F)CC1 (stereo not drawn) | > 100 µM (inactive) |  | > 100 µM (inactive) | 43.4 µM (inactive) | 56 µM (inactive) | 51.3 µM (inactive) | > 100 µM (inactive) | 79.6 µM |  | > 100 µM (inactive) | 44.5 µM (inactive) | > 100 µM (inactive) | > 100 µM (inactive) | 95.9 µM (inactive) | > 100 µM (inactive) | 66.5 µM (inactive) | > 100 µM (inactive) | 27.1 µM (inactive) | > 100 µM (inactive) |
| Cc1cc(NS(=O)(=O)c2ccc(Nc3c4ccccc4nc4c(C(=O)N5CCN(CCOS(C)(=O)=O)CC5)cccc34)cc2)no1 | > 100 µM (inactive) | > 100 µM (inactive) |  | > 100 µM (inactive) |  | > 100 µM (inactive) | > 100 µM (inactive) | > 100 µM | > 100 µM (inactive) | > 100 µM (inactive) | > 100 µM (inactive) | > 100 µM (inactive) | > 100 µM (inactive) | > 100 µM (inactive) | > 100 µM (inactive) | > 100 µM (inactive) | > 100 µM (inactive) | > 100 µM (inactive) |  |
| CC(C)(Oc1ccccc1)C(=O)Sc1c(-c2ccccc2)c(=O)n(-c2ccccc2)c(=S)n1-c1ccccc1 |  | 46.8 µM (inactive) | 88.3 µM (inactive) | 39.8 µM (inactive) | 49.5 µM (inactive) | > 100 µM (inactive) | 26.9 µM (inactive) | 56.6 µM | 31.8 µM (inactive) | 75.3 µM (inactive) |  | 32.9 µM (inactive) | 26.4 µM (inactive) | 43.3 µM (inactive) | 47.2 µM (inactive) | > 100 µM (inactive) | 23.8 µM (inactive) | > 100 µM (inactive) | 46.6 µM (inactive) |
| CCOC(=O)c1oc2c(OC)ccc3c2c1CCC3 | > 100 µM (inactive) | > 100 µM (inactive) | > 100 µM (inactive) | > 100 µM (inactive) | > 100 µM (inactive) | 77.6 µM (inactive) | > 100 µM (inactive) | > 100 µM | > 100 µM (inactive) | > 100 µM (inactive) | > 100 µM (inactive) | > 100 µM (inactive) | > 100 µM (inactive) | > 100 µM (inactive) | > 100 µM (inactive) | 86.9 µM (inactive) | > 100 µM (inactive) | 96.4 µM (inactive) |  |
| CCOC(=O)C1S/C(=N\c2ccccc2)N=C1C (stereo not drawn) | > 100 µM (inactive) | > 100 µM (inactive) | > 100 µM (inactive) | > 100 µM (inactive) | 47.3 µM (inactive) | 26.9 µM (inactive) | 60.1 µM (inactive) | 55.5 µM | > 100 µM (inactive) | 96.8 µM (inactive) | 51.2 µM (inactive) | 68.7 µM (inactive) | > 100 µM (inactive) | 55.5 µM (inactive) | > 100 µM (inactive) | 22.3 µM (inactive) | 73.5 µM (inactive) | 67.3 µM (inactive) |  |
| C/C=C/C1=C(Cl)C(=O)[C@@H](Cl)[C@@]1(O)C(=O)OC [(+)-CRYPTOSPORIPSIN] | 2.72 µM (inactive) | 3.28 µM (inactive) | 1.06 µM (active) | 1.5 µM (inactive) | 2.24 µM (inactive) | 7.38 µM (inactive) | 10.6 µM (inactive) | 1.73 µM | 7.13 µM (inactive) | 11.2 µM (inactive) | 2.28 µM (inactive) | 2.09 µM (inactive) | 2.13 µM (inactive) | 9.86 µM (inactive) | 3.8 µM (inactive) | 2.25 µM (inactive) | 2.19 µM (inactive) | 4.08 µM (inactive) | 1.48 µM (inactive) |
